{"source": "paper PMC9228641", "about": "(Journal of medicinal chemistry, 2021)", "key": {"[1]": {"system": "HCV replicon D168A variant", "experiment": "microbe, parasite or virus in culture", "settings": "Hepatitis C virus, Huh-7, 96 h, read-out: EC50 against D168A variant"}, "[2]": {"system": "WT HCV Con1 (GT-1b) reporter replicon containing the H77 (GT-1a) NS3 protease region", "experiment": "Antiviral replicon assay, WT HCV", "assay_type": "cell-based, Hepatitis C virus", "settings": "for fold improvement in antiviral activity against WT HCV: more active, relative to 36"}, "[3]": {"system": "HCV replicon D168A variant"}, "[4]": {"system": "HCV GT-3a replicon, S52/SG-Feo SHI", "settings": "relative to 12"}, "GT-3a NS3/4A protease": {"system": "GT-3a NS3/4A protease", "experiment": "Enzyme inhibition assay", "assay_type": "biochemical, Hepatitis C virus", "settings": "relative to 12"}, "HCV replicons": {"system": "HCV replicons", "experiment": "Replicon assays, variant not given", "assay_type": "cell-based, Hepatitis C virus", "settings": "more potent than 38"}, "[5]": {"settings": "less active, compared to the (S)-stereoisomer 30"}}, "note": "Where two headings read alike, the source gives them in different places."}
{"smiles": "COc1ccc2nc(C)c(O[C@@H]3C[C@H]4C(=O)N[C@]5(C(=O)NS(=O)(=O)C6(C)CC6)C[C@H]5C=CCCCCC[C@H](NC(=O)OC(C)(C)C(F)(F)F)C(=O)N4C3)nc2c1", "note": "(stereo in doubt) [Compound 12, 1,1,1-Trifluoro-2-methylpropan-2-yl ((2R,6S,13aS,14aR,16aS,Z)-2-((7-methoxy-3-methylquinoxalin-2-yl)oxy)-14a-(((1-methylcyclopropyl)sulfonyl)carbamoyl)-5,16-dioxo-1,2,3,5,6,7,8,9,10,11,13a,14,14a,15,16,16a-hexadecahydrocyclopropa[e]pyrrolo[1,2-a][1,4]diazacyclopentadecin-6-yl)carbamate]", "values": [{"measurement": "EC50", "setting": "[1]", "value": "< 5", "unit": "nM"}, {"measurement": "EC50", "setting": "[2]; Hepatitis C virus, GT1A|GT1B, Huh-7, 96 h, read-out: EC50 against WT HCV", "value": "< 5", "unit": "nM"}]}
{"smiles": "COc1ccc2nc(C)c(O[C@@H]3C[C@H]4C(=O)N[C@]5(C(=O)NS(=O)(=O)C6(C)CC6)C[C@H]5C=CCCCCC[C@H](NC(=O)O[C@@H](C)C(F)(F)F)C(=O)N4C3)nc2c1", "note": "(stereo in doubt) [Compound 13, (S)-1,1,1-Trifluoropropan-2-yl ((2R,6S,13aS,14aR,16aS,Z)-2-((7-methoxy-3-methylquinoxalin-2-yl)oxy)-14a-(((1-methylcyclopropyl)sulfonyl)carbamoyl)-5,16-dioxo1,2,3,5,6,7,8,9,10,11,13a,14,14a,15,16,16a-hexadecahydrocyclopropa[e]pyrrolo[1,2-a][1,4]diazacyclopentadecin-6-yl)carbamate]", "values": [{"measurement": "EC50", "setting": "[1]", "value": "< 10", "unit": "nM"}]}
{"smiles": "COc1ccc2nc(C)c(O[C@@H]3C[C@H]4C(=O)N[C@]5(C(=O)NS(=O)(=O)C6(C)CC6)C[C@H]5C=CCCCCC[C@H](NC(=O)O[C@H](C)C(F)(F)F)C(=O)N4C3)nc2c1", "note": "(stereo in doubt) [Compound 14, (R)-1,1,1-Trifluoropropan-2-yl ((2R,6S,13aS,14aR,16aS,Z)-2-((7-methoxy-3-methylquinoxalin-2-yl)oxy)-14a-(((1-methylcyclopropyl)sulfonyl)carbamoyl)-5,16-dioxo-1,2,3,5,6,7,8,9,10,11,13a,14,14a,15,16,16a-hexadecahydrocyclopropa[e]pyrrolo[1,2-a][1,4]diazacyclopentadecin-6-yl)carbamate]", "values": [{"measurement": "fold better potency against the D168A variant", "setting": "[3]; relative to 13", "value": 2, "unit": "fold"}]}
{"smiles": "COc1ccc2nc(C)c(O[C@@H]3C[C@H]4C(=O)N[C@]5(C(=O)NS(=O)(=O)C6(C)CC6)C[C@H]5C=CCCCCC[C@H](NC(=O)OCC5(C(F)(F)F)CC5)C(=O)N4C3)nc2c1", "note": "(stereo in doubt) [Compound 15, (1-(Trifluoromethyl)cyclopropyl)methyl ((2R,6S,13aS,14aR,16aS,Z)-2-((7-methoxy-3-methylquinoxalin-2-yl)oxy)-14a-(((1-methylcyclopropyl)sulfonyl)carbamoyl)-5,16-dioxo-1,2,3,5,6,7,8,9,10,11,13a,14,14a,15,16,16a-hexadecahydrocyclopropa[e]pyrrolo[1,2-a][1,4]diazacyclopentadecin-6-yl)carbamate]", "values": [{"measurement": "fold lower activity against GT-3a, replicon assay", "setting": "[4]", "value": 2, "unit": "fold"}, {"measurement": "fold lower activity against GT-3a, enzyme assay", "setting": "GT-3a NS3/4A protease", "value": 2, "unit": "fold"}]}
{"smiles": "COc1ccc2nc(C)c(O[C@@H]3C[C@H]4C(=O)N[C@]5(C(=O)NS(=O)(=O)C6(C)CC6)C[C@H]5C=CCCCCC[C@H](NC(=O)OC5(C(F)(F)F)CCCC5)C(=O)N4C3)nc2c1", "note": "(stereo in doubt) [Compound 24, 1-(Trifluoromethyl)cyclopentyl ((2R,6S,13aS,14aR,16aS,Z)-2-((7-methoxy-3-methylquinoxalin-2-yl)oxy)-14a-(((1-methylcyclopropyl)sulfonyl)carbamoyl)-5,16-dioxo-1,2,3,5,6,7,8,9,10,11,13a,14,14a,15,16,16a-hexadecahydrocyclopropa[e]pyrrolo[1,2-a][1,4]diazacyclopentadecin-6-yl)carbamate]", "values": [{"measurement": "fold improvement in potency against the D168A variant, replicon assay", "setting": "[3]; improvement, relative to the parent 18", "value": 2, "unit": "fold"}]}
{"smiles": "CCC(C)(C)OC(=O)N[C@H]1CCCCCC=C[C@@H]2C[C@@]2(C(=O)NS(=O)(=O)C2(C)CC2)NC(=O)[C@@H]2C[C@@H](Oc3nc4ccc(OC)cc4nc3C(F)(F)F)CN2C1=O", "note": "(stereo in doubt) [Compound 28, tert-Pentyl ((2R,6S,13aS,14aR,16aS,Z)-2-((6-methoxy-3-(trifluoromethyl)quinoxalin-2-yl)oxy)-14a-(((1-methylcyclopropyl)sulfonyl)carbamoyl)-5,16-dioxo-1,2,3,5,6,7,8,9,10,11,13a,14,14a,15,16,16a-hexadecahydrocyclopropa[e]pyrrolo[1,2-a][1,4]diazacyclopentadecin-6-yl)carbamate]", "values": [{"measurement": "fold lower antiviral activity against the D168A variant", "setting": "[3]; lower, relative to 3", "value": 2, "unit": "fold"}]}
{"smiles": "COc1ccc2nc(O[C@@H]3C[C@H]4C(=O)N[C@]5(C(=O)NS(=O)(=O)C6(C)CC6)C[C@H]5C=CCCCCC[C@H](NC(=O)O[C@H](C)C(C)C)C(=O)N4C3)c(C(F)(F)F)nc2c1", "note": "(stereo in doubt) [Compound 31, (R)-3-Methylbutan-2-yl ((2R,6S,13aS,14aR,16aS,Z)-2-((6-methoxy-3-(trifluoromethyl)quinoxalin-2-yl)oxy)-14a-(((1-methylcyclopropyl)sulfonyl)carbamoyl)-5,16-dioxo-1,2,3,5,6,7,8,9,10,11,13a,14,14a,15,16,16a-hexadecahydrocyclopropa[e]pyrrolo[1,2-a][1,4]diazacyclopentadecin-6-yl)carbamate]", "values": [{"measurement": "fold less active against D168A replicon", "setting": "[3]; [5]", "value": 2, "unit": "fold"}, {"measurement": "fold less active against WT replicon", "setting": "[2]; [5]", "value": 2, "unit": "fold"}]}
{"smiles": "COc1ccc2nc(O[C@@H]3C[C@H]4C(=O)N[C@]5(C(=O)NS(=O)(=O)C6(C)CC6)C[C@H]5C=CCCCCC[C@H](NC(=O)O[C@H](C)C(F)(F)F)C(=O)N4C3)c(C(F)(F)F)nc2c1", "note": "(stereo in doubt) [Compound 39, (R)-1,1,1-Trifluoropropan-2-yl ((2R,6S,13aS,14aR,16aS,Z)-2-((6-methoxy-3-(trifluoromethyl)quinoxalin-2-yl)oxy)-14a-(((1-methylcyclopropyl)sulfonyl)carbamoyl)-5,16-dioxo-1,2,3,5,6,7,8,9,10,11,13a,14,14a,15,16,16a-hexadecahydrocyclopropa[e]pyrrolo[1,2-a][1,4]diazacyclopentadecin-6-yl)carbamate]", "values": [{"measurement": "fold more potent in replicon assays", "setting": "HCV replicons", "value": "at least 2 fold"}]}
{"smiles": "COc1ccc2nc(O[C@@H]3C[C@H]4C(=O)N[C@]5(C(=O)NS(=O)(=O)C6(C)CC6)C[C@H]5C=CCCCCC[C@H](NC(=O)OCC5(C(F)(F)F)CC5)C(=O)N4C3)c(C(F)(F)F)nc2c1", "note": "(stereo in doubt) [Compound 40, (1-(Trifluoromethyl)cyclopropyl)methyl ((2R,6S,13aS,14aR,16aS,Z)-2-((6-methoxy-3-(trifluoromethyl)quinoxalin-2-yl)oxy)-14a-(((1-methylcyclopropyl)sulfonyl)carbamoyl)-5,16-dioxo-1,2,3,5,6,7,8,9,10,11,13a,14,14a,15,16,16a-hexadecahydrocyclopropa[e]pyrrolo[1,2-a][1,4]diazacyclopentadecin-6-yl)carbamate]", "values": [{"measurement": "fold more active against the D168A variant", "setting": "[3]; more active, relative to 36", "value": 2, "unit": "fold"}, {"measurement": "fold improvement in antiviral activity against WT HCV", "setting": "[2]", "value": 2, "unit": "fold"}]}
{"smiles": "COc1ccc2nc(O[C@@H]3C[C@H]4C(=O)N[C@]5(C(=O)NS(=O)(=O)C6(C)CC6)C[C@H]5C=CCCCCC[C@H](NC(=O)OCC5(C)CC5(F)F)C(=O)N4C3)c(C(F)(F)F)nc2c1", "note": "(stereo in doubt) [Compound 41, (2,2-Difluoro-1-methylcyclopropyl)methyl ((2R,6S,13aS,14aR,16aS,Z)-2-((6-methoxy-3-(trifluoromethyl)quinoxalin-2-yl)oxy)-14a-(((1-methylcyclopropyl)sulfonyl)carbamoyl)-5,16-dioxo-1,2,3,5,6,7,8,9,10,11,13a,14,14a,15,16,16a-hexadecahydrocyclopropa[e]pyrrolo[1,2-a][1,4]diazacyclopentadecin-6-yl)carbamate]", "values": [{"measurement": "fold improvement in antiviral activity against WT HCV", "setting": "[2]", "value": 2, "unit": "fold"}]}
{"smiles": "COc1ccc2nc(O[C@@H]3C[C@H]4C(=O)N[C@]5(C(=O)NS(=O)(=O)C6(C)CC6)C[C@H]5C=CCCCCC[C@H](NC(=O)OC5(C(F)(F)F)CCCC5)C(=O)N4C3)c(C(F)(F)F)nc2c1", "note": "(stereo in doubt) [Compound 48, 1-(Trifluoromethyl)cyclopentyl ((2R,6S,13aS,14aR,16aS,Z)-2-((6-methoxy-3-(trifluoromethyl)quinoxalin-2-yl)oxy)-14a-(((1-methylcyclopropyl)sulfonyl)carbamoyl)-5,16-dioxo-1,2,3,5,6,7,8,9,10,11,13a,14,14a,15,16,16a-hexadecahydrocyclopropa[e]pyrrolo[1,2-a][1,4]diazacyclopentadecin-6-yl)carbamate]", "values": [{"measurement": "fold better potency against the D168A variant", "setting": "[3]; compared to 42", "value": 3, "unit": "fold"}]}
{"smiles": "COc1ccc2nc(C)c(O[C@@H]3C[C@H]4C(=O)N[C@]5(C(=O)NS(=O)(=O)C6(C)CC6)C[C@H]5/C=C/CCCCC[C@H](NC(=O)OC5C[C@@H]6C[C@@H]6C5)C(=O)N4C3)nc2c1", "note": "(some centres unmarked) [Compound 20]", "values": [{"measurement": "EC50", "setting": "[1]", "value": 0.5, "unit": "nM"}]}
{"smiles": "COc1ccc2nc(C)c(O[C@@H]3C[C@H]4C(=O)N[C@]5(C(=O)NS(=O)(=O)C6(C)CC6)C[C@H]5/C=C/CCCCC[C@H](NC(=O)OC5CCC5)C(=O)N4C3)nc2c1", "note": "[Compound 21]", "values": [{"measurement": "EC50", "setting": "[1]", "value": "< 5", "unit": "nM"}]}
